Key:
JAK1 = JAK1 (Homo sapiens, UniProt P23458); test: Biochemical potency on JAK1, TR-FRET (LANCE Ultra kinase assay); details: ATP corresponding to Km; cell-free; read-out: JAK1 inhibitory activity (pIC50) (converted)
How it was run: (§1)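 ULight-JAK-1 (Tyr1023) peptide phosphorylation at Km ATP, 1.5 h r.t.; substrate solution held peptide 30/50/20/10 nM and ATP 20/0.7/0.2/12 μM, enzyme solution 0.15/0.083/0.025/0.144 ng/μL (JAK1/JAK2/JAK3/TYK2). EDTA stop, Eu-PT66 antibody TR-FRET read at 665 nm; 11-point 5-fold dilutions from 20 μM; IC50 by variable-slope fit.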

JAK2 = JAK2 (Homo sapiens, UniProt O60674); test: Biochemical potency on JAK2, TR-FRET (LANCE Ultra kinase assay); details: ATP corresponding to Km; cell-free; read-out: JAK2 inhibitory activity (pIC50) (converted)
How it was run: as §1

JAK3 = target: T1, JAK3 (Homo sapiens, UniProt P52333); test: Biochemical potency on JAK3, TR-FRET (LANCE Ultra kinase assay); details: ATP corresponding to Km; cell-free; read-out: JAK3 inhibitory activity (pIC50) (converted)
T1 sequence (P52333 1-1124): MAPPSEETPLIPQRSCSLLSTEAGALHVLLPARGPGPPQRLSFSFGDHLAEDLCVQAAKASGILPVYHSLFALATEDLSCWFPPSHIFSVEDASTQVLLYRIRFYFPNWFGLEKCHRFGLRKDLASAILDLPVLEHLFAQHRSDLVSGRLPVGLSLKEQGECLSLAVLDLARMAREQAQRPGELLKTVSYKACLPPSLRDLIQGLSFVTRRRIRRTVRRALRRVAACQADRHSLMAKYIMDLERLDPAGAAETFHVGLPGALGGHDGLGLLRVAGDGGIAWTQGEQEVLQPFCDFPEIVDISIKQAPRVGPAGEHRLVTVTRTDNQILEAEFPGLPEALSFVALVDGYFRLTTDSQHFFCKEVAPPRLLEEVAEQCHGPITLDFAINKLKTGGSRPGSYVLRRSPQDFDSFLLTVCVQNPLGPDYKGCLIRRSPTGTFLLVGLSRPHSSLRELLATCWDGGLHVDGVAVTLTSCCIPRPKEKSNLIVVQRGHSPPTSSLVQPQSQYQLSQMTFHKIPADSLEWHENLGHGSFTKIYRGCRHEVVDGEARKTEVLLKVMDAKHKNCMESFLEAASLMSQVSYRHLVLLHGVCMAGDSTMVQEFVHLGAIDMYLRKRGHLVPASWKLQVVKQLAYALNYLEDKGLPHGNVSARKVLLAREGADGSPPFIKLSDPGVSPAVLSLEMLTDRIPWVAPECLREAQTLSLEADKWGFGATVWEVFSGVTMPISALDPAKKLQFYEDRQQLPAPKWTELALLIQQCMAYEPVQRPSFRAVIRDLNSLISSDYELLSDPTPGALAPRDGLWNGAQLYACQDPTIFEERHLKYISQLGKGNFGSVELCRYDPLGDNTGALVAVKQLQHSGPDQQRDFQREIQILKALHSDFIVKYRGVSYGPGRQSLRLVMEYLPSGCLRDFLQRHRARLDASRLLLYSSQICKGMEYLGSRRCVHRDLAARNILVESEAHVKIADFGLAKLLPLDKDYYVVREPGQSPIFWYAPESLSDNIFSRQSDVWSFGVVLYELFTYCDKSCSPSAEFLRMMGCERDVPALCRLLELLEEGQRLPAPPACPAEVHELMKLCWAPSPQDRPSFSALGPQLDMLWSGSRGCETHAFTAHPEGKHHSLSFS
How it was run: as §1

TYK2 = TYK2 (Homo sapiens, UniProt P29597); test: Biochemical potency on Tyk2, TR-FRET (LANCE Ultra kinase assay); details: ATP corresponding to Km; cell-free; read-out: TYK2 inhibitory activity (pIC50) (converted)
How it was run: as §1

[1] = system: pSTAT6 in BEAS-2B human cell line; test: Inhibition of IL-13 induced pSTAT6 in BEAS; format: cell-based; details: for IC50: Homo sapiens, BEAS-2B, 0.5 h, IL-13 trigger, 30 min, parent compound; for Fold difference parent vs predicted acid metabolite: ratio=IC50 predicted acid metabolite/IC50 ester
How it was run: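 BEAS-2B cells grown 48 h, pre-treated 30 min with compound, then stimulated 30 min with IL-13. Lysate pSTAT6 (Tyr641) measured by sandwich ELISA. Eleven 5-fold dilutions from 10 μM, in duplicate, fitted to IC50.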

JAK1, sequence (P23458 whole entry): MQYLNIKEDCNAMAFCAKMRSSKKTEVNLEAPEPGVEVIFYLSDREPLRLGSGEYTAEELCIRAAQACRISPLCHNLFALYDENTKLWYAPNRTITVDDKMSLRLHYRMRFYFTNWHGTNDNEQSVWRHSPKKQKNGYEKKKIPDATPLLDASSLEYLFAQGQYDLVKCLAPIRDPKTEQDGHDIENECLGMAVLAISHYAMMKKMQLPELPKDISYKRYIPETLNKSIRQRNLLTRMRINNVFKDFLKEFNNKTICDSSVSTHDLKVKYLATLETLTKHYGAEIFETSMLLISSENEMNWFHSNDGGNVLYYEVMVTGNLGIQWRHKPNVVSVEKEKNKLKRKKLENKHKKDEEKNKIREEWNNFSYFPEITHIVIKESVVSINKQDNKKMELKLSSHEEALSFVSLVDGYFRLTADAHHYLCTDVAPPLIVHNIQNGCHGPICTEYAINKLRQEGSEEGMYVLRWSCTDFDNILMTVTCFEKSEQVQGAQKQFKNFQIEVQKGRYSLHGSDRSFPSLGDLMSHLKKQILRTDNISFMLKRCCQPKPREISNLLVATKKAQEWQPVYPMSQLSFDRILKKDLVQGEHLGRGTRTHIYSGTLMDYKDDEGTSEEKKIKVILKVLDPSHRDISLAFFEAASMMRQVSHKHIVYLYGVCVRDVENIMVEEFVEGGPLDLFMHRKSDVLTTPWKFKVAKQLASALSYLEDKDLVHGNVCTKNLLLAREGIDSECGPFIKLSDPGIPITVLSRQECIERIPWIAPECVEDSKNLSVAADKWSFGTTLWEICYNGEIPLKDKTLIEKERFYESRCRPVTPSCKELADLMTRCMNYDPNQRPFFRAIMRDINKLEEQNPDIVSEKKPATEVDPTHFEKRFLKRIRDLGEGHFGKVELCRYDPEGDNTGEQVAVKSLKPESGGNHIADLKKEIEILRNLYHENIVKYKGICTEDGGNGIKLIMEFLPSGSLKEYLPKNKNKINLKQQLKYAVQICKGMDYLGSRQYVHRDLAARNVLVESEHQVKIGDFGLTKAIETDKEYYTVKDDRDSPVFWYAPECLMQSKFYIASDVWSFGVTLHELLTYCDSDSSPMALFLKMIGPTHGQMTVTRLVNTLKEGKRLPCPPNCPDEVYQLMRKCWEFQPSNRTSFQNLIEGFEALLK
TYK2, sequence (P29597 whole entry): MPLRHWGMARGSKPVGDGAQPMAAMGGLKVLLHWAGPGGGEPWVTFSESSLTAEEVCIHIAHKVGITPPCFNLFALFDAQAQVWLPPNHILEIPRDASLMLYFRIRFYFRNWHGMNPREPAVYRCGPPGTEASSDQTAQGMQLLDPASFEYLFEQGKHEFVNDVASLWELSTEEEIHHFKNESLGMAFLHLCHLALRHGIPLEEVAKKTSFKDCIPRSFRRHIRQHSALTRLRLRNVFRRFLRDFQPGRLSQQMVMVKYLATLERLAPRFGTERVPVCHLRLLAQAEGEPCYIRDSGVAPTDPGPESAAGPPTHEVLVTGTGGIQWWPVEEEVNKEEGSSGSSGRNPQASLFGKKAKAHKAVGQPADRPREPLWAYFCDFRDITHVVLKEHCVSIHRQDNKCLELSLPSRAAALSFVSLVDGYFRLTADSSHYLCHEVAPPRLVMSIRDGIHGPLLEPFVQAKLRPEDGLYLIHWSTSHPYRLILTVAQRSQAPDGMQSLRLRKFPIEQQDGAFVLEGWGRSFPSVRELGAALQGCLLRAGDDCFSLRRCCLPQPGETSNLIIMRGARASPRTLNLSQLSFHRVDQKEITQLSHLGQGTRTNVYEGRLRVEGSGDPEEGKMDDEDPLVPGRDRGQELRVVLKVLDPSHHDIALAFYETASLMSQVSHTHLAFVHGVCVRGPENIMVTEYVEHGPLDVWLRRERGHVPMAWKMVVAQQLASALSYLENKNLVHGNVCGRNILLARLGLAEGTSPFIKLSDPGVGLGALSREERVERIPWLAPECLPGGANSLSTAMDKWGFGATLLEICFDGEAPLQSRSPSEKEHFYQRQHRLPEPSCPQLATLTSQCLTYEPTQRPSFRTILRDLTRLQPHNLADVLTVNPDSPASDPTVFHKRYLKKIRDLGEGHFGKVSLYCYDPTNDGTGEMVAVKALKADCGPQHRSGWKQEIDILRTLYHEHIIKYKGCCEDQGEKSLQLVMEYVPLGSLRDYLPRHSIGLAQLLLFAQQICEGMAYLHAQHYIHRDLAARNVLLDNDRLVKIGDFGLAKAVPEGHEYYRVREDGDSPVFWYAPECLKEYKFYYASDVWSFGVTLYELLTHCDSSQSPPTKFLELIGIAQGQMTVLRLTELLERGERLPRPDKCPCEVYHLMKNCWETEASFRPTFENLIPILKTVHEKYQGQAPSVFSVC
JAK2, sequence (O60674 whole entry): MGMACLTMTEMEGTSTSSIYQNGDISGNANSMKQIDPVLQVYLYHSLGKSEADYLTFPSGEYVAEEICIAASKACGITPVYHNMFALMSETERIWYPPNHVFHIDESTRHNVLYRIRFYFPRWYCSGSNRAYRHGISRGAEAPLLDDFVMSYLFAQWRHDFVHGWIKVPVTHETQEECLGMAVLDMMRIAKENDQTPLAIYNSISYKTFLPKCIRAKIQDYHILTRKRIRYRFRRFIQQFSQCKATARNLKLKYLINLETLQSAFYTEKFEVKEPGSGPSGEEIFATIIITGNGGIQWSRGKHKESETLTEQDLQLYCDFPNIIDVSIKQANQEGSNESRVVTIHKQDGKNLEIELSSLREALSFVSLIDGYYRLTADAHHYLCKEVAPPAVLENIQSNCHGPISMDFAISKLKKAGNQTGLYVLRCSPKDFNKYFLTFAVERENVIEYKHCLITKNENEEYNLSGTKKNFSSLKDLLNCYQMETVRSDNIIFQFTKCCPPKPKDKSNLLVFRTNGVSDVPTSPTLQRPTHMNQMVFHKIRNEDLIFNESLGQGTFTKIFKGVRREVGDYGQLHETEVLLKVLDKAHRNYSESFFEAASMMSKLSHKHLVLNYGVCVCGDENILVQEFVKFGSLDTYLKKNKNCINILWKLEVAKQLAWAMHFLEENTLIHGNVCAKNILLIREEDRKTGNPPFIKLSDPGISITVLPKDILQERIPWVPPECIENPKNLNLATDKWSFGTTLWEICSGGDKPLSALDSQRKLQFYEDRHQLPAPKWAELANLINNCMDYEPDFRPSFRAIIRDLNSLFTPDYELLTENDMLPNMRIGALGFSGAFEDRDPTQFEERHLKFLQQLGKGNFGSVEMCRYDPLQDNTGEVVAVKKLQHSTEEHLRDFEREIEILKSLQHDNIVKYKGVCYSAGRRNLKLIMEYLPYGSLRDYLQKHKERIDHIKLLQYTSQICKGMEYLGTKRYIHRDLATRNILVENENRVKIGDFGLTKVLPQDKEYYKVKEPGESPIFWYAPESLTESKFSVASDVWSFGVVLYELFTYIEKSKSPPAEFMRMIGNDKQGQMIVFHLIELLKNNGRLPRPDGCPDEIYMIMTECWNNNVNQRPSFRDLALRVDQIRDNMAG

Row | Compound | IC50 (JAK1) | IC50 (JAK2) | IC50 (JAK3) | IC50 (TYK2) | IC50 [1] | Fold difference parent vs predicted acid metabolite [1]
1 | COc1cc2c(cc1-n1nc(C(=O)NCCN3CCC(C(=O)OC4CN(C)C4)CC3)c3cnc(-c4cnn5cccnc45)cc31)OCCN2 [Example 21, 1-methylazetidin-3-yl 1-(2-(1-(6-methoxy-3,4-dihydro-2H-benzo[b][1,4]oxazin-7-yl)-6-(pyrazolo[1,5-a]pyrimidin-3-yl)-1H-pyrazolo[4,3-c]pyridine-3-carboxamido)ethyl)piperidine-4-carboxylate] | ≤ 5.01 nM | ≤ 5.01 nM | ≤ 5.01 nM | 5.01 to 50.1 nM | ≤ 5.01 nM | kkkk (ratio≥200)
2 | COCCOC(=O)C1CCN(CCNC(=O)c2nn(-c3cc4c(cc3OC)NCCO4)c3cc(-c4cnn5cccnc45)ncc23)CC1 [Example 16, 2-methoxyethyl 1-(2-(1-(6-methoxy-3,4-dihydro-2H-benzo[b][1,4]oxazin-7-yl)-6-(pyrazolo[1,5-a]pyrimidin-3-yl)-1H-pyrazolo[4,3-c]pyridine-3-carboxamido)ethyl)piperidine-4-carboxylate] | ≤ 5.01 nM | ≤ 5.01 nM | ≤ 5.01 nM | 5.01 to 50.1 nM | ≤ 5.01 nM | kkkk (ratio≥200)
3 | COc1cc2c(cc1-n1nc(C(=O)NCCN3CCC(C(=O)OCC4CN(C)CCO4)CC3)c3cnc(-c4cnn5cccnc45)cc31)OCCN2 (centres unmarked) [Example 19, (4-methylmorpholin-2-yl)methyl 1-(2-(1-(6-methoxy-3,4-dihydro-2H-benzo[b][1,4]oxazin-7-yl)-6-(pyrazolo[1,5-a]pyrimidin-3-yl)-1H-pyrazolo[4,3-c]pyridine-3-carboxamido)ethyl)piperidine-4-carboxylate] | ≤ 5.01 nM | ≤ 5.01 nM | ≤ 5.01 nM | 5.01 to 50.1 nM | ≤ 5.01 nM | kkkk (ratio≥200)
4 | CCOC(=O)C1CCCN(CCNC(=O)c2nn(-c3cc4c(cc3OC)NCCO4)c3cc(-c4cnn5cccnc45)ncc23)C1 (centres unmarked) [Example 27, ethyl 1-(2-(1-(6-methoxy-3,4-dihydro-2H-benzo[b][1,4]oxazin-7-yl)-6-(pyrazolo[1,5-a]pyrimidin-3-yl)-1H-pyrazolo[4,3-c]pyridine-3-carboxamido)ethyl)piperidine-3-carboxylate] | ≤ 5.01 nM | ≤ 5.01 nM | ≤ 5.01 nM | 5.01 to 50.1 nM | 5.01 to 50.1 nM | 
5 | COc1cc2c(cc1-n1nc(C(=O)NCCN3CCC(C(=O)OC4CCCC4)CC3)c3cnc(-c4cnn5cccnc45)cc31)OCCN2 [Example 12, cyclopentyl 1-(2-(1-(6-methoxy-3,4-dihydro-2H-benzo[b][1,4]oxazin-7-yl)-6-(pyrazolo[1,5-a]pyrimidin-3-yl)-1H-pyrazolo[4,3-c]pyridine-3-carboxamido)ethyl)piperidine-4-carboxylate] | ≤ 5.01 nM | ≤ 5.01 nM | ≤ 5.01 nM | 5.01 to 50.1 nM | ≤ 5.01 nM | kkkk (ratio≥200)
6 | CCOC(=O)C1CCN(CCNC(=O)c2nn(-c3cc4c(cc3OC)NCCC4)c3cc(-c4cnn5cccnc45)ncc23)CC1 [Example 38, ethyl 1-(2-(1-(7-methoxy-1,2,3,4-tetrahydroquinolin-6-yl)-6-(pyrazolo[1,5-a]pyrimidin-3-yl)-1H-pyrazolo[4,3-c]pyridine-3-carboxamido)ethyl)piperidine-4-carboxylate] | 5.01 to 50.1 nM | 5.01 to 50.1 nM | ≤ 5.01 nM | 5.01 to 50.1 nM | ≤ 5.01 nM | 
7 | CCOC(=O)[C@H]1[C@@H]2CN(CCNC(=O)c3nn(-c4cc5c(cc4OC)NCCO5)c4cc(-c5cnn6cccnc56)ncc34)C[C@@H]21 [Example 33, ethyl (1R,5S,6r)-3-(2-(1-(6-methoxy-3,4-dihydro-2H-benzo[b][1,4]oxazin-7-yl)-6-(pyrazolo[1,5-a]pyrimidin-3-yl)-1H-pyrazolo[4,3-c]pyridine-3-carboxamido)ethyl)-3-azabicyclo[3.1.0]hexane-6-carboxylate] | ≤ 5.01 nM | ≤ 5.01 nM | ≤ 5.01 nM | 5.01 to 50.1 nM | 5.01 to 50.1 nM | 
8 | CCOC(=O)[C@@H]1CCN(CCNC(=O)c2nn(-c3cc4c(cc3OC)NCCO4)c3cc(-c4cnn5cccnc45)ncc23)C1 [Example 43, ethyl (R)-1-(2-(1-(6-methoxy-3,4-dihydro-2H-benzo[b][1,4]oxazin-7-yl)-6-(pyrazolo[1,5-a]pyrimidin-3-yl)-1H-pyrazolo[4,3-c]pyridine-3-carboxamido)ethyl)pyrrolidine-3-carboxylate] | ≤ 5.01 nM | ≤ 5.01 nM | ≤ 5.01 nM | 5.01 to 50.1 nM | 5.01 to 50.1 nM | kkk (200>ratio≥100)
9 | CCSC(=O)C1CCN(CCNC(=O)c2nn(-c3cc4c(cc3OC)NCCO4)c3cc(-c4cnn5cccnc45)ncc23)CC1 [Example 59, S-ethyl 1-(2-(1-(6-methoxy-3,4-dihydro-2H-benzo[b][1,4]oxazin-7-yl)-6-(pyrazolo[1,5-a]pyrimidin-3-yl)-1H-pyrazolo[4,3-c]pyridine-3-carboxamido)ethyl)piperidine-4-carbothioate] | ≤ 5.01 nM | ≤ 5.01 nM | ≤ 5.01 nM | 5.01 to 50.1 nM | ≤ 5.01 nM | kkkk (ratio≥200)
10 | CCOC(=O)C1CN(CCNC(=O)c2nn(-c3cc4c(cc3OC)NCCO4)c3cc(-c4cnn5cccnc45)ncc23)CCN1C (centres unmarked) [Example 36, ethyl 4-(2-(1-(6-methoxy-3,4-dihydro-2H-benzo[b][1,4]oxazin-7-yl)-6-(pyrazolo[1,5-a]pyrimidin-3-yl)-1H-pyrazolo[4,3-c]pyridine-3-carboxamido)ethyl)-1-methylpiperazine-2-carboxylate] | ≤ 5.01 nM | 5.01 to 50.1 nM | ≤ 5.01 nM | 5.01 to 50.1 nM | 5.01 to 50.1 nM | 
11 | COc1cc2c(cc1-n1nc(C(=O)NCCN3CCC(C(=O)O[C@@H]4CCN(C)C4)CC3)c3cnc(-c4cnn5cccnc45)cc31)OCCN2 [Example 23, (R)-1-methylpyrrolidin-3-yl 1-(2-(1-(6-methoxy-3,4-dihydro-2H-benzo[b][1,4]oxazin-7-yl)-6-(pyrazolo[1,5-a]pyrimidin-3-yl)-1H-pyrazolo[4,3-c]pyridine-3-carboxamido)ethyl)piperidine-4-carboxylate] | ≤ 5.01 nM | ≤ 5.01 nM | ≤ 5.01 nM | 5.01 to 50.1 nM | 5.01 to 50.1 nM | kkk (200>ratio≥100)
12 | CCC(C)OC(=O)C1CCN(CCNC(=O)c2nn(-c3cc4c(cc3OC)NCCO4)c3cc(-c4cnn5cccnc45)ncc23)CC1 (centres unmarked) [Example 10, sec-butyl 1-(2-(1-(6-methoxy-3,4-dihydro-2H-benzo[b][1,4]oxazin-7-yl)-6-(pyrazolo[1,5-a]pyrimidin-3-yl)-1H-pyrazolo[4,3-c]pyridine-3-carboxamido)ethyl)piperidine-4-carboxylate] | ≤ 5.01 nM | ≤ 5.01 nM | ≤ 5.01 nM | 5.01 to 50.1 nM | ≤ 5.01 nM | kkkk (ratio≥200)
